Test results published in publication PMC8308784, “Novel Purine Chemotypes with Activity against Plasmodium falciparum and Trypanosoma cruzi” (Pharmaceuticals, 2021).

Tests used:
HepG2 cells = experiment: HepG2 cell toxicity assay (alamarBlue); format: cell-based, human; conditions: 2 days; minimum value of the 95% CI, except BNZ (mean (SD))
Method: Human erythrocytes were purified from B+ Rh+ blood samples and maintained at 4 °C in incomplete RPMI medium. Vero (green monkey kidney epithelial cells), LLC-MK2 (Rhesus monkey kidney epithelial cells), and HepG2 (human liver epithelial cells) cultures were cultivated in DMEM supplemented with 1% penicillin–streptomycin (PS) and 10% heat-inactivated fetal bovine serum (FBS) at 37 °C, 5% CO2, and >95% humidity, as described in [31]. HepG2 cells were also supplemented with 10% non-essential amino acids. Vero and MK2 cells were passaged twice per week at 1:12 ratios, while HepG2 cells were passaged at a 1:8 ratio.
Vero and HepG2 cells were detached, centrifuged, and resuspended in DMEM without phenol red. Cell viability was checked upon cell counting with trypan blue staining. Then, Vero and HepG2 cells were diluted at a concentration of 5 × 10^5 and 3.2 × 10^5 cells per mL, respectively, before adding 100 µL per well to the 96-well plate. Each run contained its own negative (untreated cells) and positive (medium alone) controls. Plates were incubated at 37 °C for 4 days in the case of Vero, or 2 in the case of HepG2 cells. Assay readout was made by adding 50 µL per well of a PBS solution containing 10% alamarBlue reagent (Thermo Fisher Scientific); then, plates were incubated for another 6 h at 37 °C, before recording the fluorescence intensity with a Tecan Infinite M Nano+ reader (excitation: 530 nm, emission: 590 nm).
(§1) Absorbance values derived from the anti-T. cruzi assays and fluorescence values from the anti-P. falciparum and cell toxicity assays were normalized to the controls. In the primary screening at three fixed doses, the compounds’ inhibitory activity was expressed as a percentage of the negative control (100% parasitic growth). In dose–response assays, the compounds’ IC50 and TC50 values were determined with GraphPad Prism 7 software (version 7.00, 2016), using a non-linear regression analysis model defined by the following equation: Y=100 ÷(1+10^((LogIC50−X)×HillSlope))

P. falciparum 3D7 [1] = experiment: P. falciparum dose-response growth inhibition assay (FACS, SYTO 11); format: cell-based; conditions: P. falciparum 3D7, 48 h, mean (SD)
Method: Apicomplexan parasite cultures were maintained at 3% hematocrit under an atmosphere of 37 °C in 93% N2, 5% CO2, and 2% O2, following standard methods. Synchronized cultures were obtained via 5% sorbitol lysis.
P. falciparum growth was primarily analyzed under 3 different concentrations ([…]) of the 81 compounds. Conditions were tested in triplicate for every concentration, and the test was repeated when the standard deviation was above 10% for any concentration. Z-values varied between 0.83 and 0.98 in the different plates analyzed. Selected compounds (12.3% potential hit rate) were further analyzed via standard growth inhibition assays, carried out as previously described in [54]. Briefly, parasitemia was adjusted to 1–1.3%, with >90% rings after sorbitol synchronization. Two hundred microliters of parasite culture were plated in 96-well microplates and incubated for 48 h at 37 °C in the presence of decreasing concentrations of the tested compounds, in triplicate. Parasitemia was determined by fluorescence-assisted cell sorting (FACS). Non-infected RBCs and samples containing parasitized RBCs (including controls with DMSO as carrier solvent) were diluted in PBS to a final concentration of ~1–10 × 10^6 cells/mL. The cell suspension was stained with SYTO 11 (0.5 mM stock in DMSO, Thermo Fisher Scientific, Waltham, MA, USA), to a final concentration of 0.5 μM. Samples were analyzed in a Becton Dickinson FACSCalibur. Sample excitation was carried out using a 488-nm, air-cooled argon-ion laser at a power of 15 mW, using forward and side scatter to gate the RBC population, and SYTO 11 green fluorescence (530 nm, FITC filter) was collected in a logarithmic scale. The single-cell population was selected on a forward–side scattergram, and the green fluorescence from this population was analyzed. Parasitemia was expressed as the number of parasitized cells per 100 erythrocytes.
as §1

P. falciparum 3D7 [2] = experiment: P. falciparum primary screening at three fixed concentrations; format: cell-based; conditions: average of at least three experiments; for activity at 1 µM / activity at 10 µM / activity at 100 µM: Plasmodium falciparum, read-out: Primary screening, parasite growth relative to the negative control; for activity at 1 µM: 3D7, compound at 1 µM; for activity at 10 µM: 3D7, compound at 10 µM; for activity at 100 µM: 3D7, compound at 100 µM

SMILES	HepG2 Cells TC50 (HepG2 cells) [µM]	IC50 (P. falciparum 3D7 [1]) [µM]	Primary screening, parasite growth relative to the negative control (P. falciparum 3D7 [2]; compound at 1 µM) [%]	Primary screening, parasite growth relative to the negative control (P. falciparum 3D7 [2]; compound at 10 µM) [%]	Primary screening, parasite growth relative to the negative control (P. falciparum 3D7 [2]; compound at 100 µM) [%]	IC50 (P. falciparum 3D7 [1]; Plasmodium falciparum, 3D7, 48 h) [µM]	activity at 1 µM (P. falciparum 3D7 [2]) [%]	activity at 10 µM (P. falciparum 3D7 [2]) [%]	activity at 100 µM (P. falciparum 3D7 [2]) [%]
c1ccc(CCn2c(-c3ccccc3)nc3c(OCc4ccccc4)ncnc32)cc1 [Compound 6g]	>300	19.1	100.79	94.94	24.45				
CC(C)(C)n1c(-c2ccccc2)nc2c(OCc3ccccc3)ncnc21 [Compound 6D]	>200					18.9	117	114	13.2
COC(=O)c1ccccc1-n1cc(COc2ncnc3c2nc(-c2ccccc2)n3N(C)C)nn1 [Compound 34]							95.6	85	43.2
